Data as given in US20090098110A1, “INJECTABLE FORMS OF SOLID-FORMING CROSSLINKED BIOELASTIC BIOPOLYMERS FOR LOCAL DRUG DELIVERY” (Duke University, priority 2007, published 2009).
Counter-ions that a name gives are not always drawn.

Columns and labels:
[1] = reported value, organism not stated; cited from earlier work
[2] = test system: Bacillus subtilis (ATCC 6633); test: Agar disk bioassay (zone of inhibition) of antibiotics released from the crosslinked bioelastomer constructs; format: cell-based; settings: for active compound concentration corresponding to zone of inhibition: day 1 supernatant; for active compound concentration corresponding to zone of inhibition / active drug concentration corresponding to zone of inhibition: vs serial dilutions
Procedure: To determine if the eluted antibiotics remained active, bioassays were performed in triplicate, for a subset of samples, using Bacillus subtilis (ATCC 6633) for both vancomycin and cefazolin. Vancomycin supernatants from days 1, 7, 14, 21, and 28, as well as a sample of the final construct (following resolubilization) were tested against vancomycin serial dilutions of 5 mg/ml, 1 mg/ml, 0.5 mg/ml, 0.1 mg/ml, and 0.05 mg/ml. […] Bacterial suspensions were prepared in tryptic soy broth following the recommendations set forth by the manufacturer for Bacillus subtilis (Lyfo Disk, MicroBiologics, St. Cloud, Minn.). After 30 minutes of incubation at 37° C. the suspensions were swabbed onto petri dishes containing Mueller-Hinton agar. Twenty microliters of each supernatant were pipetted onto 6 mm filter paper disks applied to the surface of the agar. The plates were incubated for 18 hours at 37° C. After incubation, zones of inhibition were measured twice in two randomly chosen directions. Supernatants from ELP control samples were tested in this same manner.

[3] = Antibiotic release from the crosslinked bioelastomer constructs into PBS at 37° C, UV/Vis of supernatant; format: physicochemical; settings: ELP 150 mg/ml

## Cc1nnc(SCC2=C(C(=O)[O-])N3C(=O)[C@@H](NC(=O)Cn4cnnn4)[C@H]3SC2)s1.[Na+] [cefazolin, cefazolin sodium salt]
[1]
  minimal inhibitory concentration: 0.25 to 1 µg/mL
[2]; cefazolin released from crosslinked construct
  active compound concentration corresponding to zone of inhibition: ~2 mg/mL
[2]; cefazolin released from crosslinked construct, day 3 supernatant
  active drug concentration corresponding to zone of inhibition: less than 0.5 mg/ml
[2]; supernatants of days 1-4 and final homogenized construct, all samples tested
  zone of bacterial growth inhibition, biological activity of released cefazolin: biologically active
[3]; cefazolin-loaded ELP constructs
  time in which the majority of cefazolin release took place: initial two or three days

## CN[C@H](CC(C)C)C(=O)N[C@H]1C(=O)N[C@@H](CC(N)=O)C(=O)N[C@H]2C(=O)N[C@H]3C(=O)N[C@H](C(=O)N[C@H](C(=O)O)c4cc(O)cc(O)c4-c4cc3ccc4O)[C@H](O)c3ccc(c(Cl)c3)Oc3cc2cc(c3O[C@@H]2O[C@H](CO)[C@@H](O)[C@H](O)[C@H]2O[C@H]2C[C@](C)(N)[C@H](O)[C@H](C)O2)Oc2ccc(cc2Cl)[C@H]1O [vancomycin, vancomycin hydrochloride]
[1]
  minimal inhibitory concentration: 1.5 to 3 µg/mL
[2]; all supernatants tested (days 1, 7, 14, 21, 28) and homogenized final sample
  zone of bacterial growth inhibition, biological activity of released vancomycin: retained biological activity
[2]; vancomycin released from crosslinked construct
  active compound concentration corresponding to zone of inhibition: ~1 mg/mL
[2]; vancomycin released from crosslinked construct, day 7 supernatant
  active drug concentration corresponding to zone of inhibition: less than 0.1 mg/ml
[3]; cefazolin-loaded ELP constructs, PBS 37° C, supernatant replaced days 1-10
  time period over which the ELP constructs release antibiotic: ≥ 10 days
[3]; vancomycin-loaded crosslinked ELP constructs, PBS 37° C, supernatant replaced
  time period over which the crosslinked ELP constructs release vancomycin: ≥ 28 days
